Assay [1] is described as follows: DRUGMATRIX: Atrial Natriuretic Factor (ANF) radioligand binding (ligand: [125I] ANF (rat)). It counts as cell membranes, Cavia porcellus, Dunkin-Hartley, Adrenal gland, Membrane. Particulars: Not Active = under 50% inhibition at 10 µM.
Assay [2] concerns the target T1, 5-hydroxytryptamine receptor 2C (Homo sapiens, UniProt P28335).
T1 sequence (P28335 whole entry): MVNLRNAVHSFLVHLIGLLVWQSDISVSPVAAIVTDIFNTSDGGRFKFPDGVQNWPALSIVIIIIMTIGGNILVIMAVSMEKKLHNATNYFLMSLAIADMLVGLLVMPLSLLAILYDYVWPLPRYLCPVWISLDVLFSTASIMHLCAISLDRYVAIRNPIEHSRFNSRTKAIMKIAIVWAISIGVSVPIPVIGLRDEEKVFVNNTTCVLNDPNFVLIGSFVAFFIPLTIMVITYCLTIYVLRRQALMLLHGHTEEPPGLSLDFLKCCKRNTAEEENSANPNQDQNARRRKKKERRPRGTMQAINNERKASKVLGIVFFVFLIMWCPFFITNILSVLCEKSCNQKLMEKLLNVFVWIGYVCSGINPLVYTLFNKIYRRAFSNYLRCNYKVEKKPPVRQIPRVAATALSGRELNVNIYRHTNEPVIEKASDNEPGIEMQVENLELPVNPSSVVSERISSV
The assay is described as follows: DRUGMATRIX: Serotonin (5-Hydroxytryptamine) 5-HT2C radioligand binding (ligand: [3H] Mesulergine). It counts as cell membranes, CHO-K1, Membrane. As to conditions: Not Active = under 50% inhibition at 10 µM.

The target in assay [3] is Sigma non-opioid intracellular receptor 1 (Homo sapiens, UniProt Q99720). The assay is described as follows: DRUGMATRIX: Sigma1 radioligand binding (ligand: [3H] Haloperidol). Particulars: Not Active = under 50% inhibition at 10 µM. The format is cell membranes, Jurkat, Membrane.
The next assay concerns the target Melanocortin receptor 3 (Homo sapiens, UniProt P41968). It counts as cell membranes, Membrane. Particulars: hek293. Note: in other assays of this panel Not Active means under 50% inhibition at 10 µM.
Assay [4] deals with T2, Nitric oxide synthase, inducible (Mus musculus, UniProt P29477).
T2 sequence (P29477 whole entry): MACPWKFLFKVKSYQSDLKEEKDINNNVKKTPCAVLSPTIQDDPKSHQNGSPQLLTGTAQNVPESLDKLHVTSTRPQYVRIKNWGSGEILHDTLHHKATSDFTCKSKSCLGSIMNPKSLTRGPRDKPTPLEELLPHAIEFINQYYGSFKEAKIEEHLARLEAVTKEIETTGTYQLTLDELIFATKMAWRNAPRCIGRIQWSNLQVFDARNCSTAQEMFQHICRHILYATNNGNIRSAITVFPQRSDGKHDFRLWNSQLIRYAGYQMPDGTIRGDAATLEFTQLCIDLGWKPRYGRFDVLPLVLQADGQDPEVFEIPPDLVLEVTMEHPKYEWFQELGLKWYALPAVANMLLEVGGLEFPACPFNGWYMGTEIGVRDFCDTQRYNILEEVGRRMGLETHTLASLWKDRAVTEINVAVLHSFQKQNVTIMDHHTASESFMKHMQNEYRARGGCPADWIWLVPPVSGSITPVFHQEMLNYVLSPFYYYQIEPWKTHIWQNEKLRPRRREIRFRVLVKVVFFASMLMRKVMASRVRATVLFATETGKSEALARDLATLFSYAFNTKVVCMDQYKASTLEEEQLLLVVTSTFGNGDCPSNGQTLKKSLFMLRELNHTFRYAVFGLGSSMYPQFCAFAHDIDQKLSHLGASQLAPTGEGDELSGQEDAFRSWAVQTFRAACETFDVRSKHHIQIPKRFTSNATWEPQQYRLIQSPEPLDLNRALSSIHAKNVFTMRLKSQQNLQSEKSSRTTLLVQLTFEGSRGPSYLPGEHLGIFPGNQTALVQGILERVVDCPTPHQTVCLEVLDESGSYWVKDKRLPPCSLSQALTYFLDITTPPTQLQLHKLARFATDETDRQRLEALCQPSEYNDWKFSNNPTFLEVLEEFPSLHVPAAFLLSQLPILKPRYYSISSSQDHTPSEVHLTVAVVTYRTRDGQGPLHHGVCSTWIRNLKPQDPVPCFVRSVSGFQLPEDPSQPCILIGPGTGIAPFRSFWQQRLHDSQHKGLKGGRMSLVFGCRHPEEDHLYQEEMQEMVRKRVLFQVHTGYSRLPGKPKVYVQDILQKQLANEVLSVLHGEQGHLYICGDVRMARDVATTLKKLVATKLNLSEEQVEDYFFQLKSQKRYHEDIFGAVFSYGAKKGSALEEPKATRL
Further details: species or system Escherichia coli.

Assay [5] is described as follows: DRUGMATRIX: Phosphodiesterase PDE4 enzyme inhibition (substrate: [3H]cAMP + cAMP). Particulars: u-937; Not Active = under 50% inhibition at 10 µM.
Assay [6] concerns the target Protein phosphatase 3 catalytic subunit alpha (Homo sapiens, UniProt Q08209). Further details: species or system Escherichia coli.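 Note: inhibition of calcineurin (PP2B) enzyme activity, measured with DiFMUP as the substrate; in other assays of this panel Not Active means under 50% inhibition at 10 µM.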

SMILES strings stand for the structures.

Chain of Melanocortin receptor 3 (P41968 whole entry): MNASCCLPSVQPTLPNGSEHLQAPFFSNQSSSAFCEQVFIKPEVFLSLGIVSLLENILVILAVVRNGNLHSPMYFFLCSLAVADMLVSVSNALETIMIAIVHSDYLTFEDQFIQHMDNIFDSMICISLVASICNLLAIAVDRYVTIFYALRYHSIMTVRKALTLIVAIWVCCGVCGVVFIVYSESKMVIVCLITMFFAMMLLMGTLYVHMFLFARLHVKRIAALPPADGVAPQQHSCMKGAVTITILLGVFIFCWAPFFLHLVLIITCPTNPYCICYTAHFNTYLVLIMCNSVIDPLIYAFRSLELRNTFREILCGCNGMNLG
Chain of Sigma non-opioid intracellular receptor 1 (Q99720 whole entry): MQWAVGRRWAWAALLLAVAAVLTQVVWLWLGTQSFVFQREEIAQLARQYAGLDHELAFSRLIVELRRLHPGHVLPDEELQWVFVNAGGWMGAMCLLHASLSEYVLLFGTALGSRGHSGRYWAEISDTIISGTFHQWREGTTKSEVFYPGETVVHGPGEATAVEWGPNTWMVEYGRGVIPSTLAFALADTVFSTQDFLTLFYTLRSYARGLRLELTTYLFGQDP

Usually IC50 stands for the point on the concentration scale where inhibition reaches its midpoint. In general, Ki refers to the equilibrium dissociation constant of an inhibitor or competing ligand from its target. For `CCOC(N)=O`, the IC50 result (in assay [1]; in assay [2] (cho-k1); in assay [3] (jurkat); at Melanocortin receptor 3; in assay [4]; in assay [5]) was “Not Active” throughout. Also, the half-maximal inhibitory concentration (IC50) result in assay [6] is on record as “Not Active”. Moreover, the inhibition constant (Ki) result in assay [1] and in assay [5] was “Not Active” throughout.
With `CC1=C(CC(=O)O)c2cc(F)ccc2/C1=C\c1ccc(S(C)(=O)=O)cc1` [EXISULIND], the IC50 result (in assay [1]; in assay [2] (cho-k1); in assay [3] (jurkat); against Melanocortin receptor 3; in assay [4]; in assay [5]) was “Not Active” in each case. In assay [6], the IC50 entry was “Not Active”. The Ki entry in assay [1] and in assay [5] was “Not Active” throughout.
For the compound `CN1C2CCCC1CC(NC(=O)c1nn(C)c3ccccc13)C2` (centres undefined) [GRANISETRON], the 50% inhibitory concentration (IC50) result (in assay [2] (cho-k1); in assay [3] (jurkat); against Melanocortin receptor 3; in assay [4]; in assay [6]) was “Not Active” in each case.
Consider `CC[C@@H](CO)NC(=O)[C@@H]1C=C2c3cccc4c3c(cn4C)C[C@H]2N(C)C1` [METHYSERGIDE], for which the 50% inhibitory concentration (IC50) is 2.09 nM in assay [2] (read-out: IC50), “Not Active” on Melanocortin receptor 3, “Not Active” in assay [4] and “Not Active” in assay [6]. In addition, in assay [2] (read-out: Ki), the Ki turned out to be 1.09 nM.
On to `CN(CCOc1ccc(CC2SC(=O)NC2=O)cc1)c1ccccn1` (centres undefined) [ROSIGLITAZONE], for which the concentration for half-maximal inhibition (IC50) result (in assay [1]; in assay [2] (cho-k1); in assay [3] (jurkat); against Melanocortin receptor 3; in assay [4]; in assay [5]) was “Not Active” throughout. For the same compound, the IC50 entry in assay [6] is listed as “Not Active”. Besides, the inhibitory constant (Ki) result in assay [1] and in assay [5] was “Not Active” throughout.
`CO[C@H]1C[C@@H]2CC[C@@H](C)[C@@](O)(O2)C(=O)C(=O)N2CCCC[C@H]2C(=O)O[C@H]([C@H](C)C[C@@H]2CC[C@@H](O)[C@H](OC)C2)CC(=O)[C@H](C)/C=C(\C)[C@@H](O)[C@@H](OC)C(=O)[C@H](C)C[C@H](C)/C=C/C=C/C=C/1C` [SIROLIMUS]: the half-maximal inhibitory concentration (IC50) result (in assay [1]; in assay [2] (cho-k1); in assay [3] (jurkat); against Melanocortin receptor 3; in assay [4]; in assay [5]) was “Not Active” throughout. In addition, the IC50 result in assay [6] is listed as “Not Active”. The Ki result in assay [1] and in assay [5] was “Not Active” in each case.
`Nc1ccc(S(=O)(=O)Nc2ncccn2)cc1` [SULFADIAZINE]: the IC50 entry (in assay [1]; in assay [2] (cho-k1); in assay [3] (jurkat); against Melanocortin receptor 3; in assay [4]; in assay [5]) was “Not Active” each time. The IC50 entry in assay [6] is given as “Not Active”. Also, the inhibition constant Ki entry in assay [1] and in assay [5] was “Not Active” each time.
For the compound `COc1ncnc(NS(=O)(=O)c2ccc(N)cc2)c1OC` [SULFADOXINE], the concentration for half-maximal inhibition (IC50) entry (in assay [1]; in assay [2] (cho-k1); in assay [3] (jurkat); against Melanocortin receptor 3; in assay [4]; in assay [5]) was “Not Active” throughout. Moreover, the half-inhibitory concentration (IC50) result in assay [6] is given as “Not Active”. The inhibition constant (Ki) result in assay [1] and in assay [5] was “Not Active” in each case.
For the compound `C[C@]12CC[C@H]3[C@@H](CCC4=CC(=O)CC[C@@]43C)[C@@H]1CC[C@@H]2O` [TESTOSTERONE], the concentration for half-maximal inhibition (IC50) result (in assay [1]; in assay [2] (cho-k1); in assay [3] (jurkat); against Melanocortin receptor 3; in assay [4]; in assay [5]) was “Not Active” each time. The IC50 entry in assay [6] is “Not Active”. Further, the inhibition constant (Ki) result in assay [1] and in assay [5] was “Not Active” in each case.
For the compound `CCS(=O)(=O)CCn1c([N+](=O)[O-])cnc1C` [TINIDAZOLE], the IC50 result (in assay [1]; in assay [2] (cho-k1); in assay [3] (jurkat); against Melanocortin receptor 3; in assay [4]; in assay [5]) was “Not Active” each time. Also, in assay [6], the IC50 result is reported as “Not Active”. Also, the inhibition constant (Ki) entry in assay [1] and in assay [5] was “Not Active” throughout.
Regarding `NC[C@H]1O[C@H](O[C@H]2[C@H](O)[C@@H](O[C@H]3O[C@H](CO)[C@@H](O)[C@H](N)[C@H]3O)[C@H](N)C[C@@H]2N)[C@H](N)C[C@@H]1O` [TOBRAMYCIN], the IC50 result (in assay [1]; in assay [2] (cho-k1); in assay [3] (jurkat); against Melanocortin receptor 3; in assay [4]; in assay [5]) was “Not Active” in each case. In addition, the IC50 result in assay [6] is “Not Active”. The Ki result in assay [1] and in assay [5] was “Not Active” in each case.
On to `O=c1n(CCCN2CCN(c3cccc(Cl)c3)CC2)nc2ccccn12` [TRAZODONE], for which the IC50 is 2200 nM in assay [3] (read-out: IC50), “Not Active” against Melanocortin receptor 3, “Not Active” in assay [4] and “Not Active” in assay [6]. The Ki in assay [3] (read-out: Ki) is 926 nM.
As to `O=C(O)C(Cl)(Cl)Cl` [TRICHLOROACETIC ACID], the IC50 entry (in assay [1]; in assay [2] (cho-k1); in assay [3] (jurkat); on Melanocortin receptor 3; in assay [4]; in assay [5]) was “Not Active” each time. In addition, the half-maximal inhibitory concentration (IC50) result in assay [6] is on record as “Not Active”. Further, the Ki result in assay [1] and in assay [5] was “Not Active” in each case.
For the compound `CC(=O)O[C@H]1C[C@@H]2CC[C@@H]3[C@H](CC[C@@]4(C)[C@H]3C[C@H]([N+]3(C)CCCCC3)[C@@H]4OC(C)=O)[C@@]2(C)C[C@@H]1N1CCCCC1.[Br-]` [VECURONIUM BROMIDE], the concentration for half-maximal inhibition (IC50) entry (in assay [1]; in assay [2] (cho-k1); in assay [3] (jurkat); at Melanocortin receptor 3; in assay [4]; in assay [5]) was “Not Active” throughout. The IC50 result in assay [6] was “Not Active”. In addition, the Ki entry in assay [1] and in assay [5] was “Not Active” throughout.

These data come from ChEMBL document CHEMBL1909046, “DrugMatrix in vitro pharmacology data”.
